These results are taken from patent US10638756B2, “Molecules having pesticidal utility, and intermediates, compositions, and processes, related thereto” (Dow AgroSciences LLC, priority 2017, dated 2020).

Format in all cases: in vivo
In series [1] the test system is Beet Armyworm (Spodoptera exigua). Kind of series: Bioassay on Beet Armyworm (BAW), 128-well diet tray assay. Conditions: Spodoptera exigua, 168 h; 50 μg/cm^2 on artificial diet, second instar larvae, five to seven days; read-out: BAW % Control (or Mortality) rating.
In series [2] the test system is Cabbage Looper (Trichoplusia ni). Kind of series: Bioassay on Cabbage Looper (CL), 128-well diet tray assay. The note with it: 168 h, 50 μg/cm^2 on artificial diet, second instar larvae, five to seven days, read-out: CL % Control (or Mortality) rating. The gist of the method: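 Percent mortality, averaged across eight replicate wells, after second-instar larvae (1–5 per well) fed for five to seven days on diet dosed at 50 μg/cm^2. Compound was applied in acetone-water 90:10 and dried; trays kept vented at 25° C under 14:10 photoperiod.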

For series [3], the system named is Yellow Fever Mosquito (Aedes aegypti). The note with it: about 1 day-old larvae, 3 days, scored on mortality. The protocol:
Certain molecules disclosed in this document were tested against YFM using procedures described in the following paragraph. In the reporting of the results, the “GPA & YFM Rating Table” was used (See Table Section).
Master plates containing 400 μg of a molecule dissolved in 100 μL of dimethyl sulfoxide (DMSO) (equivalent to a 4000 ppm solution) are used. A master plate of assembled molecules contains 15 μL per well. To this plate, 135 μL of a 90:10 water/acetone mixture is added to each well. A robot (Biomek® NXP Laboratory Automation Workstation) is programmed to dispense 15 μL aspirations from the master plate into an empty 96-well shallow plate (“daughter” plate). There are 6 reps (“daughter” plates) created per master. The created “daughter” plates are then immediately infested with YFM larvae.
The day before plates are to be treated, mosquito eggs are placed in Millipore water containing liver powder to begin hatching (4 g. into 400 mL). After the “daughter” plates are created using the robot, they are infested with 220 μL of the liver powder/larval mosquito mixture (about 1 day-old larvae). After plates are infested with mosquito larvae, a non-evaporative lid is used to cover the plate to reduce drying. Plates are held at room temperature for 3 days prior to grading. After 3 days, each well is observed and scored based on mortality. The results are indicated in the table entitled “Table ABC: Biological Results” (See Table Section).

Consider `N#Cc1cccc(NNC(=O)c2ccc(/C(F)=C/C(c3cc(Cl)c(Cl)c(Cl)c3)C(F)(F)F)cc2C(F)(F)F)c1` (stereo not drawn) [F100, (Z)—N′-(3-Cyanophenyl)-4-(1,4,4,4-tetrafluoro-3-(3,4,5-trichlorophenyl)but-1-en-1-yl)-2-(trifluoromethyl)benzohydrazide], for which the mortality at 50 µg/cm2 in series [1] and in series [2] was 50 to 100% in each case. Also, the “YFM % Control (or Mortality) rating” value in series [3] is given as “A (80-100)”.
On to `C=CCN(NC(=O)c1ccc(/C(F)=C/C(c2cc(Cl)c(Cl)c(Cl)c2)C(F)(F)F)cc1C(F)(F)F)c1ncccn1` (stereo not drawn) [F152, (Z)—N′-Allyl-N′-(pyrimidin-2-yl)-4-(1,4,4,4-tetrafluoro-3-(3,4,5-trichlorophenyl)but-1-en-1-yl)-2-(trifluoromethyl)benzohydrazide], for which the mortality at 50 µg/cm2 in series [1] and in series [2] was 50 to 100% in each case. Moreover, the “YFM % Control (or Mortality) rating” value in series [3] is recorded as “A (80-100)”.
As to `O=C(NNc1ncccn1)c1ccc(/C(F)=C/C(c2ccc(Br)c(Cl)c2)C(F)(F)F)cc1C(F)(F)F` (stereo not drawn) [F16, (Z)-4-(3-(4-Bromo-3-chlorophenyl)-1,4,4,4-tetrafluorobut-1-en-1-yl)-N′-(pyrimidin-2-yl)-2-(trifluoromethyl)benzohydrazide], the mortality at 50 µg/cm2 in series [1] and in series [2] was 50 to 100% throughout. The “YFM % Control (or Mortality) rating” value in series [3] was “A (80-100)”.
In the case of `CN(NC(=O)c1ccc(/C(F)=C/C(c2ccc(Br)c(C(F)(F)F)c2)C(F)(F)F)cc1C(F)(F)F)c1ncccn1` (stereo not drawn) [F39, (Z)-4-(3-(4-Bromo-3-(trifluoromethyl)phenyl)-1,4,4,4-tetrafluorobut-1-en-1-yl)-N′-methyl-N′-(pyrimidin-2-yl)-2-(trifluoromethyl)benzohydrazide], the mortality at 50 µg/cm2 in series [1] and in series [2] was 50 to 100% throughout. In series [3], the “YFM % Control (or Mortality) rating” value was “A (80-100)”.
As for `O=C(NNc1nnn[nH]1)c1ccc(/C(F)=C/C(c2cc(Cl)c(Cl)c(Cl)c2)C(F)(F)F)cc1C(F)(F)F` (stereo not drawn) [F95, (Z)-4-(1,4,4,4-Tetrafluoro-3-(3,4,5-trichlorophenyl)but-1-en-1-yl)-N′-(1H-tetrazol-5-yl)-2-(trifluoromethyl)benzohydrazide], the mortality at 50 µg/cm2 in series [1] and in series [2] was 50 to 100% throughout. In addition, the “YFM % Control (or Mortality) rating” value in series [3] is on record as “A (80-100)”.
Regarding `O=C(NNc1cccc(C(F)(F)F)c1)c1ccc(/C(F)=C/C(c2cc(Cl)c(Cl)c(Cl)c2)C(F)(F)F)cc1C(F)(F)F` (stereo not drawn) [F3, (Z)-4-(1,4,4,4-Tetrafluoro-3-(3,4,5-trichlorophenyl)but-1-en-1-yl)-2-(trifluoromethyl)-N′-(3-(trifluoromethyl)phenyl)benzohydrazide], the mortality at 50 µg/cm2 in series [1] and in series [2] was 50 to 100% each time. The “YFM % Control (or Mortality) rating” value in series [3] was “A (80-100)”.
Regarding `Cc1cc(F)ccc1NNC(=O)c1ccc(/C(F)=C/C(c2cc(Cl)c(Cl)c(Cl)c2)C(F)(F)F)cc1C(F)(F)F` (stereo not drawn) [F35, (Z)—N′-(4-Fluoro-2-methylphenyl)-4-(1,4,4,4-tetrafluoro-3-(3,4,5-trichlorophenyl)but-1-en-1-yl)-2-(trifluoromethyl)benzohydrazide], the mortality at 50 µg/cm2 in series [1] and in series [2] was 50 to 100% in each case. The “YFM % Control (or Mortality) rating” value in series [3] is reported as “A (80-100)”.
For `O=C(NNc1ncccn1)c1ccc(/C(F)=C/C(c2cc(Br)cc(Br)c2)C(F)(F)F)cc1C(F)(F)F` (stereo not drawn) [F176, (Z)-4-(3-(3,5-Dibromophenyl)-1,4,4,4-tetrafluorobut-1-en-1-yl)-N′-(pyrimidin-2-yl)-2-(trifluoromethyl)benzohydrazide], the mortality at 50 µg/cm2 in series [1] and in series [2] was 50 to 100% each time. For the same molecule, the “YFM % Control (or Mortality) rating” value in series [3] is “A (80-100)”.
In the case of `O=C(NNc1cc(F)ccc1F)c1ccc(/C(F)=C/C(c2cc(Cl)c(Cl)c(Cl)c2)C(F)(F)F)cc1C(F)(F)F` (stereo not drawn) [F134, (Z)—N′-(2,5-Difluorophenyl)-4-(1,4,4,4-tetrafluoro-3-(3,4,5-trichlorophenyl)but-1-en-1-yl)-2-(trifluoromethyl)benzohydrazide], the mortality at 50 µg/cm2 in series [1] and in series [2] was 50 to 100% throughout. Besides, in series [3], the “YFM % Control (or Mortality) rating” value is reported as “A (80-100)”.
In the case of `N#Cc1ccc(/C(F)=C/C(c2cc(Cl)c(Cl)c(Cl)c2)C(F)(F)F)cc1C(F)(F)F` (stereo not drawn) [C25, (Z)-4-(1,4,4,4-Tetrafluoro-3-(3,4,5-trichlorophenyl)but-1-en-1-yl)-2-(trifluoromethyl)benzonitrile], the mortality at 50 µg/cm2 in series [1] and in series [2] was 50 to 100% in each case. In addition, the “YFM % Control (or Mortality) rating” value in series [3] is “A (80-100)”.
`C#CCN(NC(=O)c1ccc(/C(F)=C/C(c2cc(Cl)c(Cl)c(Cl)c2)C(F)(F)F)cc1C)c1ncccn1` (stereo not drawn) [F148, (Z)-2-Methyl-N′-(prop-2-yn-1-yl)-N′-(pyrimidin-2-yl)-4-(1,4,4,4-tetrafluoro-3-(3,4,5-trichlorophenyl)but-1-en-1-yl)benzohydrazide]: the mortality at 50 µg/cm2 in series [1] and in series [2] was 50 to 100% throughout. In addition, the “YFM % Control (or Mortality) rating” value in series [3] is “A (80-100)”.
For the molecule `O=C(NNc1ncccn1)c1ccc(/C(F)=C/C(c2cc(Cl)c(Br)c(Cl)c2)C(F)(F)F)cc1C(F)(F)F` (stereo not drawn) [F172, (Z)-4-(3-(4-Bromo-3,5-dichlorophenyl)-1,4,4,4-tetrafluorobut-1-en-1-yl)-N′-(pyrimidin-2-yl)-2-(trifluoromethyl)benzohydrazide], the mortality at 50 µg/cm2 in series [1] and in series [2] was 50 to 100% throughout. The “YFM % Control (or Mortality) rating” value in series [3] is “A (80-100)”.
As to `O=C(NNc1ccc(F)cc1)c1ccc(/C(F)=C/C(c2cc(Cl)c(Cl)c(Cl)c2)C(F)(F)F)cc1C(F)(F)F` (stereo not drawn) [F52], the mortality at 50 µg/cm2 in series [1] and in series [2] was 50 to 100% in each case. Moreover, in series [3], the “YFM % Control (or Mortality) rating” value is on record as “A (80-100)”.
Take `O=C(NNc1ccccn1)c1ccc(/C(F)=C/C(c2cc(Cl)c(Cl)c(Cl)c2)C(F)(F)F)cc1C(F)(F)F` (stereo not drawn) [F9, (Z)—N′-(Pyridin-2-yl)-4-(1,4,4,4-tetrafluoro-3-(3,4,5-trichlorophenyl)but-1-en-1-yl)-2-(trifluoromethyl)benzohydrazide]: the mortality at 50 µg/cm2 in series [1] and in series [2] was 50 to 100% in each case. The “YFM % Control (or Mortality) rating” value in series [3] was “A (80-100)”.
As for `CN(NC(=O)c1ccc(/C(F)=C/C(c2cc(Cl)c(Cl)c(Cl)c2)C(F)(F)F)cc1Br)c1ncccn1` (stereo not drawn) [F102, (Z)-2-Bromo-N′-methyl-N′-(pyrimidin-2-yl)-4-(1,4,4,4-tetrafluoro-3-(3,4,5-trichlorophenyl)but-1-en-1-yl)benzohydrazide], the mortality at 50 µg/cm2 in series [1] and in series [2] was 50 to 100% in each case. Further, the “YFM % Control (or Mortality) rating” value in series [3] is “A (80-100)”.
On to `O=C(NNc1ncccn1)c1ccc(/C(F)=C/C(c2cc(Cl)c(Cl)c(Cl)c2)C(F)(F)F)cc1Br` (stereo not drawn) [F128, (Z)-2-Bromo-N′-(pyrimidin-2-yl)-4-(1,4,4,4-tetrafluoro-3-(3,4,5-trichlorophenyl)but-1-en-1-yl)benzohydrazide], for which the mortality at 50 µg/cm2 in series [1] and in series [2] was 50 to 100% each time. In addition, the “YFM % Control (or Mortality) rating” value in series [3] is “A (80-100)”.
Turning to `CN(C)N(CC(=O)NCC(F)(F)F)C(=O)c1ccc(/C(F)=C/C(c2cc(Cl)c(Cl)c(Cl)c2)C(F)(F)F)cc1C(F)(F)F` (stereo not drawn) [F184, (Z)-2-(2,2-dimethyl-1-(4-(1,4,4,4-tetrafluoro-3-(3,4,5-trichlorophenyl)but-1-en-1-yl)-2-(trifluoromethyl)benzoyl)hydrazinyl)-N-(2,2,2-trifluoroethyl)acetamide], the mortality at 50 µg/cm2 in series [1] and in series [2] was 50 to 100% throughout. Moreover, the “YFM % Control (or Mortality) rating” value in series [3] is listed as “A (80-100)”.
For `O=C(NNc1ncccn1)c1ccc(/C(F)=C/C(c2ccc(Br)c(C(F)(F)F)c2)C(F)(F)F)cc1C(F)(F)F` (stereo not drawn) [F78, (Z)-4-(3-(4-Bromo-3-(trifluoromethyl)phenyl)-1,4,4,4-tetrafluorobut-1-en-1-yl)-N′-(pyrimidin-2-yl)-2-(trifluoromethyl)benzohydrazide], the mortality at 50 µg/cm2 in series [1] and in series [2] was 50 to 100% each time. Besides, the “YFM % Control (or Mortality) rating” value in series [3] is listed as “A (80-100)”.
Regarding `O=C(NNc1ncccn1)c1ccc(/C(F)=C/C(c2ccc(Cl)c(Cl)c2)C(F)(F)F)cc1C(F)(F)F` (stereo not drawn) [F117], the mortality at 50 µg/cm2 in series [1] and in series [2] was 50 to 100% each time. Further, the “YFM % Control (or Mortality) rating” value in series [3] is “A (80-100)”.
Turning to `CN(NC(=O)c1ccc(/C(F)=C/C(c2cc(Cl)c(Cl)c(Cl)c2)C(F)(F)F)cc1C(F)(F)F)c1nccs1` (stereo not drawn) [F158, (Z)—N′-methyl-4-(1,4,4,4-tetrafluoro-3-(3,4,5-trichlorophenyl)but-1-en-1-yl)-N′-(thiazol-2-yl)-2-(trifluoromethyl)benzohydrazide], the mortality at 50 µg/cm2 in series [1] and in series [2] was 50 to 100% each time. Also, in series [3], the “YFM % Control (or Mortality) rating” value was “A (80-100)”.

For orientation: mortality means the share of the test organisms that died.
